We go through 3 molecules from patent US20050234100A1, “Insulin resistance as new action of loperamide” (Yu Sheng Pharmaceutical Co., Ltd., priority 2004, published 2005).

SMILES strings stand for the structures.

Assay [1] has as its system fructose-rich chow-fed Wistar rats (insulin resistance). The assay can be described thus: intraperitoneal glucose tolerance test (IGTT) in fructose-induced insulin resistant rats. It is filed as in vivo. How it is done:
(§1) Animals were food-restricted and given only water to drink for overnight before the experiment. On the morning of examination, the basal blood sample (0.1 ml) drawn from the tail veins of these rats were regarded as 0 min samples. Then, each animal was immediately received an intraperitoneal injection of glucose at 1 g/kg body wt to induce the glucose tolerance test (IGTT). Blood samples from the tail vein were drawn at 5, 10, 20, 30, 60, 90, 120 min after the glucose feeding for measurement of plasma levels of glucose and insulin. Immediately after the completion of the IGTT, all animals received 2 ml of sterile saline subcutaneously to compensate for plasma loss. The obtained whole blood was thoroughly mixed with 10 IU heparin and centrifuged at 13,000×g to separate the plasma. Concentration of plasma glucose was measured by the glucose oxidase method via an analyzer (Quik-Lab, Ames, Miles Inc., Elkhart, Ind., USA) with samples run in duplicate. Enzyme-linked immunosorbent assay was carried out to measure plasma insulin using the commercial kit (Penisula Lab. Inc., Belmont, Calif., USA). Glucose-insulin index was calculated as the product of the glucose and insulin areas under the curve (AUC) as described previously (Kara et al., 2000). In order to evaluate whether loperamide could improve insulin resistance, four different doses of loperamide (2 ? 6 ? 12 ? 18 μg/kg) were injected into abdomen of each animal 30 minutes before the injection of glucose.
After 2 weeks on standard chow (Purina Mills, Inc.), half of the Wistar rats were randomly assigned to receive the fructose-rich chow (Teklad, Madison, Wis.) containing 60% fructose for 4 additional weeks to induce insulin resistance that was confirmed by the loss of tolbutamide action. The other rats still received standard chow during the 4-week period.
(§2) The blood sample was centrifuged to obtain plasma. Then, 10 μl of plasma was mixed with 1.0 ml of Glucose Kit Reagent (Biosystems S.A., Barcelona, Spain) at 37° C. for 10 minutes. The glucose concentration was measured in duplicate using Quik-lab analyzer (Ames, Miles Inc., Elkhart, Ind., USA) and expressed to the value of mg/dl. Results of plasma glucose lowering activity were calculated as percentage decrease of the initial value according to the formula: (Gi−Gt)/Gi×100% where Gi was the initial glucose concentration and Gt was the plasma glucose concentration after treatment of loperamide or same volume of vehicle.
(§3) Enzyme-linked immunosorbent assay (ELISA) was carried out to measure plasma insulin using the commercial kit (Penisula Lab. Inc., Belmont, Calif., USA). The measurement principle utilized the polyclonal antibodies in rabbit to directly identify the carboxyl-terminal of human insulin. Biotinylated peptide would compete with test subject the integration position with antibodies. After washing away the biotinylated peptides that was not integrated with antibodies, streptavidin-conjugated Horseradish Peroxidase (SA-HRP) was used to react with immobilized primary antibody/biotinylated peptide complex. Then, TMB (3,3′,5,5′-Tetramethyl Benzidine Dihydrochloride) is added to react with HRP and then yellow color was shown. The lightness or darkness of color was determined by the amount of biotinylated peptide integrated with antibodies. […] The standard curve was ploted according to the amounts of light absorption of standard subjects at 450 nm. Then through log/logit, the insulin concentration was calculated using MicroReader™ 4 Plus.
Using glucose-insulin index (Kara et al., 2000) as indicator, effect of loperamide on insulin resistance was investigated in fructose-fed rats. The control group was treated with the same volume of saline, while test groups were injected loperamide at four doses (2 ? 6 ? 12 ? 18 μg/kg) into abdomens. […]

The subject of assay [2] is Zucker-diabetic fatty rats. Kind of assay: glucose challenge test in Zucker-diabetic fatty rats. It is filed as in vivo. The conditions noted are these: loperamide 2, 6, 18 μg/kg. How it is done: as §1, §2, §3
In order to know similar action of loperamide is also effective in genetic animal, the present study employed the Zucker-diabetic fatty rats to investigate IGTT in addition. Also, control group was treated with the same volume of vehicle (saline). The only difference is that glucose (0.5 g/kg) was given by intravenous injection at 30 minutes later of treatment.

The next assay concerns C2C12 myoblasts. The assay can be described thus: 2-DG glucose uptake in C2C12 myoblasts. The class given is cell-based, mouse. How it is done: (§4) The C2C12 cells, obtained from Culture Collection and Research Center (CCRC 60083) of the Food Industry Institute (Hsin-Chiu City, Taiwan) were plated at 5×10^4 cells/dish in 35-mm diameter culture dishes in Dulbecco's modified Eagle's medium (DMEM) (GIBCO BRL, Gaithersburg, Md.) supplemented with 10% fetal bovine serum (FBS) (GIBCO BRL) and 1% antibiotic solution (penicillin 10,000 U/ml, streptomycin 10 mg/ml, amphotericin B 25 μg/ml) and were grown to 80% confluence at 37° C. in humidified atmosphere containing 5% CO2. Myoblast differentiation was induced with DMEM supplemented with 5% horse serum, L-glutamine, and penicillin/streptomycin for 72 h. Differentiated myotubes were starved for 5 h in serum-free DMEM before treatment as described previously (Sheriff et al., 1992).
Glucose uptake was determined using 2-[^14C]-deoxy-D-glucose (2-DG) (New England Nuclear, Boston, Mass.). After 5 h of serum starvation, cells were incubated with or without pharmacological inhibitors at indicated concentrations for 30 min at 37° C. Then, the cells were incubated with loperamide at indicated concentrations at 37° C. for another 30 min under continuous shaking at 40 cycles/min. The cells were further incubated with 2-DG (1 μCi/ml) for 5 min at 37° C. Uptake was terminated by aspiration of the solution. Cells were then washed three times, and radioactivity associated with the cells was determined by cell lysis in 1 M NaOH, and the aliquots were neutralized to be estimated in scintillation counter. 2-DG uptake was expressed as the percentage of the basal 2-DG uptake that was taken as 100% from samples incubated with DMEM only. Nonspecific uptake was obtained by parallel determinations in the presence of 20 μmol/l cytochalasin B (Sigma, St. Louis, Mo., USA).

For assay [3], the system named is TNF-α induced insulin resistant C2C12 myoblasts. The assay can be described thus: insulin-stimulated glucose uptake in TNF-α induced insulin resistant C2C12 myoblasts. It is filed as cell-based, mouse. The following applies: for glucose uptake stimulated by insulin in TNF-α treated C2C12 myoblasts, antagonist alone: without loperamide. How it is done: as §4
Cultured C2C12 myoblasts (5×10^6) were incubated with loperamide at desired concentration or the same volume of vehicle in a cultivation condition oxygenated with a mixture of 95% O2 and 5% CO2 at 37° C. temperature for 3 days. Then, tumor necrosis factor-α (TNF-α) at concentration of 10 ng/ml was added. One hour later, cells were flushed down with 0.05% trypsin and put under centrifugal force at 13,000 rpm for 5 minutes, and clear liquid on top was then thrown away. Insulin ([…]) was used to simulate glucose uptake into cells using 2-[1-^14C]-Deoxy-D-Glucose (2-DG) (the final concentration of isotope was 0.25 μCi/ml) as indicator for 5-min incubation. The reaction was terminated in ice-bath. Then, C2C12 myoblasts were washed with buffer liquid three times. Finally, cells were lysed with 1 M NaOH and put into scintillation vial. The 2-DG specific uptake of cells was measured as indicated above.
The effect of loeramide on insulin resistance was further investigated in C2C12 myoblasts using TNF-α induced insulin resistance as described previously (Ruan et al., 2002; Mikael et al., 2002). Incubation with loperamide for 3 days at desired concentration, C2C12 myoblasts were treated with TNF-α (10 ng/ml) for one hour. Then, insulin was used to stimulate glucose uptake using 2-DG as indicator following the above method.

Assay [4] has as its system STZ-induced type-I diabetic rats. The following applies: intravenous injection; cited from earlier work.
[5] abbreviates: TNF-α treated C2C12 myoblasts, antagonist dose dependence.

Consider `CN(C)C(=O)C(CCN1CCC(O)(c2ccc(Cl)cc2)CC1)(c1ccccc1)c1ccccc1` [loperamide], for which the “raise of plasma glucose during IGTT” value in assay [1] (fructose-fed rats, loperamide 2, 6, 12, 18 μg/kg into abdomen, 60 minutes after injection (30 minutes after 1 g/kg glucose i.p.), vs control group) was “reduce the raise of plasma glucose significantly”. Besides, the “plasma insulin levels and incremental area under the insulin curve during IGTT” value in assay [1] (fructose-fed rats, loperamide 2-18 μg/kg into abdomen) is “lowered”. The “total AUC for the glucose response during IGTT” value in assay [1] (fructose-fed rats, loperamide 2-18 μg/kg into abdomen, vs vehicle-treated control) is on record as “markedly lower than that from vehicle-treated control”. For the same molecule, the “glucose-insulin index during IGTT” value in assay [1] (fructose-rich chow-fed rats, loperamide 2-18 μg/kg into abdomen, index = product of glucose and insulin AUC) is “reduced the value of glucose-insulin index”. Moreover, in assay [2], the “AUC of plasma glucose” value is reported as “inhibited by loperamide but at a higher dosing”, the glucose-insulin index entry was “dose-dependently decreased” and the “total area (AUC) of plasma insulin” value is on record as “reduced by loperamide in a dose-dependent manner”. The “plasma insulin after glucose challenge” value in assay [2] (5 min after glucose injection) was “reduction of plasma insulin by loperamide was obtained in a dose-dependent fashion”. Moreover, in assay [2] (35 min after treatment (5 min after 0.5 g/kg glucose i.v.)), the “plasma glucose after glucose challenge” value is recorded as “lowering of plasma glucose”. Moreover, in the assay on C2C12 myoblasts (C2C12 myoblasts about 10^6 cells, 37° C.), the “incubation time to maximal plateau of 2-DG uptake” value is listed as “about 25 min”. Moreover, in the assay with C2C12 myoblasts (loperamide 10 nM to 10 μM, 30 min incubation), the “2-DG uptake, concentration dependence” value was “increase of 2-DG uptake in a concentration-dependent manner”. Moreover, the “glucose uptake relative to control” value in the assay on C2C12 myoblasts (loperamide 10 μM (maximal concentration), N=8) is on record as “about 1.3 times of the control”. In the assay on C2C12 myoblasts (loperamide 10 μM, no antagonist, 8 experiments), the 2-DG uptake is 204.3±4.7 pmol/mg protein/5 min. The “glucose uptake in TNF-α induced insulin resistant C2C12 myoblasts” value in assay [3] (loperamide 10 μM (maximal concentration)) is recorded as “reversed the glucose uptake in TNF-α induced insulin resistant C2C12 myoblasts to the level near normal control”. Further, in assay [3] (loperamide incubation 3 days, TNF-α 10 ng/ml 1 hour, dose dependence), the “glucose uptake stimulated by insulin in TNF-α treated C2C12 myoblasts” value was “reversed the glucose uptake stimulated by insulin in TNF-α treated C2C12 myoblasts in a dose-dependent manner”. Further, in assay [4], the plasma glucose result is “produced plasma glucose lowering effect”.

Turning to `C=CCN1CC[C@]23c4c5ccc(O)c4O[C@H]2/C(=N/N=C2\CC[C@@]4(O)[C@H]6Cc7ccc(O)c8c7[C@@]4(CCN6CC=C)[C@H]2O8)CC[C@@]3(O)[C@H]1C5` [naloxonazine], the “effect of antagonist on action of loperamide (10 μM)” value (“effect of antagonist” below) in assay [3] (setting [5]) is “inhibited the effect of loperamide in a dose-dependent manner”. Moreover, in assay [3] (antagonist at 1 μM), the “effect of antagonist” value was “eliminated the action of loperamide” and the “glucose uptake stimulated by insulin in TNF-α treated C2C12 myoblasts, antagonist alone” value is given as “did not modify the glucose uptake”.

As for `C=CCN1CC[C@]23c4c5ccc(O)c4O[C@H]2C(=O)CC[C@@]3(O)[C@H]1C5` [naloxone], in assay [1] (naloxone 1 mg/kg 1 hour before loperamide 18 μg/kg, fructose-rich chow-fed rats), the “action of loperamide to lower glucose-insulin index in the presence of naloxone” value is “reversed to that near to the value in fructose-rich chow-fed rats received vehicle treatment”. In addition, in assay [1] (naloxone 1 mg/kg, fructose-rich chow-fed rats), the “glucose-insulin index, naloxone alone” value was “did not modify the value of glucose-insulin index directly”. Besides, the “loperamide (10 μM)-induced 2-DG uptake in the presence of antagonist” value in the assay on C2C12 myoblasts (naloxone 0.1 μM, 8 experiments) was found to be 183.2±4.1 pmol/mg protein/5 min; with C2C12 myoblasts (naloxone 1 μM, 8 experiments) it was 169.9±5.0 pmol/mg protein/5 min. Further, the results for the “effect of antagonist” value in assay [3] (setting [5]) and in assay [3] (antagonist at 1 μM) were “inhibited the effect of loperamide in a dose-dependent manner” and “eliminated the action of loperamide”, respectively. Moreover, the “glucose uptake stimulated by insulin in TNF-α treated C2C12 myoblasts, antagonist alone” value in assay [3] (antagonist at 1 μM) was “did not modify the glucose uptake”.
